# Test results from US8048642B2, “Heme choline esters and uses thereof” (priority 2007, dated 2011).
# What was measured:
# Type in all cases: biochemical
# [1] = target: butyrylcholine esterase (BCE) (Equus caballus, UniProt P81908); test: Hydrolysis of heme bis choline ester by butyrylcholine esterase, followed by HPLC; settings: bis choline ester with BCE (50 units) in phosphate buffer pH 7.0, HPLC at 400 nm
# Description: To confirm enzymatic hydrolysis of heme bis choline ester, a sample of bis choline ester in methanol was added to a solution of butyrylcholine esterase (BCE) (50 units) in phosphate buffer (pH 7.0). The progress of the hydrolysis was determined by HPLC analysis of the reaction mixture using a Waters Xterra C18 reverse phase column (4.6×50 mm). A gradient elution was performed starting with 95:5 water (+0.1% TFA):acetonitrile (+0.1% TFA) up to 0:100 over 10 minutes followed by isocratic elution with acetonitrile (+0.1% TFA) for 5 minutes. […] Under these conditions the bis ester elutes first (tR=5.2 min) followed by the monoester (5.9 min) and heme (6.6 min).
# [2] = target: T1, apo-horseradish peroxidase (apo-HRP) (Armoracia rusticana, UniProt P00433); test: Recombination of heme and apo-HRP, TMB colorimetry; settings: heme mixed with 30 pmol apo-horseradish peroxidase, 30 min, background corrected
# T1 sequence (P00433 31-338): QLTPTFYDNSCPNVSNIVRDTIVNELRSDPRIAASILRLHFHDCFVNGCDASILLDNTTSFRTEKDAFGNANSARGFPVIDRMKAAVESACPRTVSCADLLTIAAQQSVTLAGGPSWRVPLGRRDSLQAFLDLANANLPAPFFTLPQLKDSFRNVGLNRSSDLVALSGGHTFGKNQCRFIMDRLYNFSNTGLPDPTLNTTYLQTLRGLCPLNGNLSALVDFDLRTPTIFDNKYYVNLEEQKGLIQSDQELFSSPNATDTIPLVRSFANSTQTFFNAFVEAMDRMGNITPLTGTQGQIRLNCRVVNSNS
# Description: A 250 μM stock solution of horseradish peroxidase type VI (HRP, Sigma P8375, MW=44000 g/mol) was prepared by solubilizing 11 mg of lyophilized protein in 1 mL 100 mM sodium phosphate, pH 7.0.
# Heme was extracted from horseradish peroxidase type VI (Sigma P8375) according to the method of Teale (Biochim. Biophys. Acta 35, 543, (1959)). The resultant apo-HRP was dialyzed into 100 mM sodium phosphate, pH 7.0, with 0.1 mM calcium chloride. The concentration of this stock apo-HRP solution was estimated from absorbance at 280 nm as 30 μM by assuming an extinction coefficient of 20000 cm^−1 M^−1 (Lasagna et al., Biophys. J. 76, 443, (1999)).
# Within an hour before performing the peroxidase assay a fresh stock solution of approximately 1 mM heme (MW 652 g/mol) was prepared by first dissolving 38.9 mg heme (Sigma H5533) in 1 mL of 1.0M NaOH and then mixing 100 μL of the resulting solution with 6 mL 100 mM borate buffer, pH 9.1.
# The absorbance data in Table 4 was acquired using a SpectraMax M2 plate reader (Molecular Devices) in 96-sample format. The HRP stock solution was diluted serially with 100 mM sodium phosphate, pH 7.0, to make 2000, 500 and 50 pM solutions. 10 μL of each solution was then mixed with 90 μL 3,3′,5,5′-tetramethylbenzidine (TMB) liquid substrate system (Sigma T8665) to define t=0. The absorbance at 650 nm was measured after 30 min and corrected for the absorbance of TMB solution without added HRP.
# The heme stock solution was diluted serially with 100 mM borate buffer, pH 9.1, to make 2000 pM, 500 pM, and 50 pM solutions. 10 μL of each solution was first mixed with 1 μL of the apo-HRP stock solution and then immediately mixed with 90 μL TMB liquid substrate system to define t=0. The absorbance at 650 nm was measured after 30 min and corrected for the absorbance of a mixture of apo-HRP and TMB liquid substrate system without added heme.
# [3] = target: T1, apo-horseradish peroxidase (apo-HRP); test: Signal enhancement from HRP-based cascade using a chromogenic substrate (TMB); settings: 6 minutes after adding TMB liquid substrate; mixtures pre-incubated 16 hours at room temperature
# Description: The samples in Table 2 were prepared from the following stock solutions. A 120 μM stock solution of apo-HRP was prepared by adding 2 mL phosphate-buffered saline (PBS, Pierce 28372) to 10 mg lyophilized apo-HRP (Sigma 6278, MW=43000 g/mol). A 250 μM stock solution of horseradish peroxidase type VI (HRP, Sigma P8375, MW=44000 g/mol) was prepared by solubilizing 11 mg lyophilized protein in 1 mL 100 mM sodium phosphate, pH 7.0. A 1 kU/mL stock solution of butyrylcholine esterase was prepared by dissolving 1 kU lyophilized protein (Sigma C1057) in 1 mL phosphate-buffered saline (PBS, Pierce 28372). […] The 1 cm-path length absorbance of this 10% methanol solution was measured to be 17 absorbance units (au) at 390 nm using a NanoDrop-1000 Spectrophotometer. […]
# Samples A1, A2, B1, and B2 were each combined with 95 μL 3,3′,5,5′-tetramethylbenzidine (TMB) liquid substrate system (Sigma T8665), which includes hydrogen peroxide. After 6 minutes OD was determined at 650 nm in a 96-well format using a SpectraMax M2 plate reader (Molecular Devices). These signals are recorded in Table 2 above.
# Relative signal enhancement was calculated by subtracting appropriate background signals from wells A1 and A2, and then taking a ratio. […] The calculated signal enhancement is thus equal to (A1−B2)/(A2−B1), which corresponds to (1.05−0.16)/(0.10−0.04)=15. […]
# [4] = target: T1, apo-horseradish peroxidase (apo-HRP); test: Blocking and rescue of peroxidase activity with a chemiluminescent substrate; settings: for Rescue of peroxidase activity of apo-HRP plus heme bis choline ester: esterase added to apo-HRP and heme bis choline ester
# Description: (§1) A 1-kU/mL stock solution of butyrylcholine esterase was prepared by dissolving 1 kU of lyophilized protein (Sigma C1057) in 1 mL phosphate-buffered saline (PBS, Pierce 28372). An activity of 900 U per mg protein and MW=250000 g/mol was assumed and the concentration of the resultant solution was estimated as 4 μM.
# as §1, with “1 kU/mL” for “1-kU/mL”, “acetylcholine” for “butyrylcholine”, “kU” for “kU of”, “C2888)” for “C1057)”, “1000” for “900”, “MW=280000” for “MW=250000”
# A fresh 1 mM solution of heme was prepared in 100 mM borate buffer, pH 9.1, as described in Example 5. The 1 cm-path length absorbance of this solution was measured to be 40 at 390 nm using a NanoDrop-1000 Spectrophotometer (NanoDrop Technologies). A 0.1 mM heme solution was then prepared by mixing 100 μL of this stock with 900 μL in PBS.
# Less than 1 mg heme bis choline ester was dissolved in 100 μL methanol. 10 μL of the methanol solution was then mixed with 90 μL 100 mM borate buffer, pH 9.1. The 1 cm-path length absorbance of this 10% methanol solution was measured to be 17 absorbance units (au) at 390 nm using a NanoDrop-1000 Spectrophotometer. Assuming the extinction coefficient of heme bis choline ester in 10% methanol was not substantially different than that of heme in PBS, a 0.1 mM solution of heme bis choline ester was then prepared by mixing 23.5 μL of the 10% methanol solution with 77.5 μL PBS.
# Solutions of 0.3 μM apo-HRP, 10 μM heme and 10 μM heme bis choline ester in PBS were prepared by dilution of these stock solutions with PBS. […]
# 90 μL of freshly mixed chemiluminescent substrate (Sigma CPS260, an enhanced luminol product with a stabilized peroxide buffer solution) was added to reaction mixtures 1-6, which were allowed to incubate at room temperature for 5 minutes and the luminescence units (LU) for each was determined with a SpectraMax M2 plate reader in a 96-well format (Molecular Devices), shown below in Table 5.
# butyrylcholine esterase (BCE), sequence (P81908 whole entry): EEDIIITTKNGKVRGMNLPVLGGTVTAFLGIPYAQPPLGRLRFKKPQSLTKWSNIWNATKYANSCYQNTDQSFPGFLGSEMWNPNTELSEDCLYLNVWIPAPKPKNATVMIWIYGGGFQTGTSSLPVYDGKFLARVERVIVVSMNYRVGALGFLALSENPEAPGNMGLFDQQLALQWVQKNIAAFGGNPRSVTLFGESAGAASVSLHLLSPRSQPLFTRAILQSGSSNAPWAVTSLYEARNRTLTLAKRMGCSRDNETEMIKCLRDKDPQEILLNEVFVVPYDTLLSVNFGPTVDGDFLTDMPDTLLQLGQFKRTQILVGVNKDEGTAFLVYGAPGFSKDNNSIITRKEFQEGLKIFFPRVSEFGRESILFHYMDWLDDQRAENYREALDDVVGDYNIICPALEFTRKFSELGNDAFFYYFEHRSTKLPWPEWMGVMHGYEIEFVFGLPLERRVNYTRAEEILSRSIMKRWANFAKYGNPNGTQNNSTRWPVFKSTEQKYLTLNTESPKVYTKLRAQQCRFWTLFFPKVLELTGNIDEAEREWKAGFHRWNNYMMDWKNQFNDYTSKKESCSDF
compound,measurement,setting,value
"C=CC1=C(C)c2cc3[n-]c(cc4[n-]c(cc5nc(cc1n2)C(C)=C5C=C)c(C)c4CCC(=O)O)c(CCC(=O)O)c3C.[Fe+2] [Heme, heme]",HPLC peak area (hydrolysis progress),[1]; 0.75 hr,7 AUC units
same,HPLC peak area (hydrolysis progress),[1]; 2.75 hr,12 AUC units
same,HPLC peak area (hydrolysis progress),[1]; 21 hr,21 AUC units
same,OD 650 nm,[2]; 5 fmol,0.07
same,OD 650 nm,[2]; 20 fmol,0.79
A2: 5 μL of 0.13 nM HRP (0.7 fmol) [Sample A2],OD 650 nm,[3],0.10
BCE: butyrylcholine esterase (Sigma C1057),Rescue of peroxidase activity of apo-HRP plus heme bis choline ester,[4],rescued
acetylcholine esterase: acetylcholine esterase (Sigma C2888),Rescue of peroxidase activity of apo-HRP plus heme bis choline ester,[4],did not demonstrably rescue peroxidase activity
heme bis choline ester [Bis ester],Peroxidase activity of mixture with apo-HRP compared with heme,"[4]; sample 1 versus sample 4, 10-fold excess of heme bis choline ester",less peroxidase activity
same,"Hydrolysis vs. Time, converted to concentration",[1]; 0 hr,100 AUC units
same,"Hydrolysis vs. Time, converted to concentration",[1]; 0.75 hr,60 AUC units
same,"Hydrolysis vs. Time, converted to concentration",[1]; 2.75 hr,52 AUC units
same,"Hydrolysis vs. Time, converted to concentration",[1]; 21 hr,41 AUC units
heme mono choline ester [Mono ester],"Hydrolysis vs. Time, converted to concentration",[1]; 0.75 hr,28 AUC units
same,"Hydrolysis vs. Time, converted to concentration",[1]; 2.75 hr,29 AUC units
same,"Hydrolysis vs. Time, converted to concentration",[1]; 21 hr,24 AUC units
horseradish peroxidase: horseradish peroxidase type VI (Sigma P8375),OD 650 nm,[2]; 5 fmol,0.88
same,OD 650 nm,[2]; 20 fmol,3.4
